The subject of series [1] is HCT-116. Description: Inhibition of colony formation in human HCT-116 cells at […] preincubated with compound for 1 hr followed by exposure to 2 Gy gamma irradiation and measured after 7 days by crystal violet staining based chemiluminescence assay relative to control. The format is functional. To be noted: HCT-116, light or radiation study, dose 0.25 µM, time 169 hrs.

In series [2] the test system is HCT-116. The experiment in a line: Inhibition of colony formation in human HCT-116 cells preincubated with compound for 1 hr followed by exposure to 2 Gy gamma irradiation and measured after 7 days by crystal violet staining based chemiluminescence assay. Format: functional, cell-based. The following applies: HCT-116, light or radiation study.
The test system of series [3] is NCI-H460. The experiment in a line: Antitumor activity against human NCI-H460 cells xenografted in BALB/ c nude mouse assessed as inhibition of tumor growth at 100 mg/kg, po administered once daily with 2 Gy irradiation and measured upto 7 days by vernier caliper analysis. The format is functional, organism-based. The following applies: time <= 7.0 day. Background: A xenograft is tissue or cells of one species grown in another, often human tumour cells in immunodeficient mice.

For series [4], the target named is DNA-dependent protein kinase catalytic subunit (Homo sapiens, UniProt P78527).
Chain of DNA-dependent protein kinase catalytic subunit (P78527 whole entry): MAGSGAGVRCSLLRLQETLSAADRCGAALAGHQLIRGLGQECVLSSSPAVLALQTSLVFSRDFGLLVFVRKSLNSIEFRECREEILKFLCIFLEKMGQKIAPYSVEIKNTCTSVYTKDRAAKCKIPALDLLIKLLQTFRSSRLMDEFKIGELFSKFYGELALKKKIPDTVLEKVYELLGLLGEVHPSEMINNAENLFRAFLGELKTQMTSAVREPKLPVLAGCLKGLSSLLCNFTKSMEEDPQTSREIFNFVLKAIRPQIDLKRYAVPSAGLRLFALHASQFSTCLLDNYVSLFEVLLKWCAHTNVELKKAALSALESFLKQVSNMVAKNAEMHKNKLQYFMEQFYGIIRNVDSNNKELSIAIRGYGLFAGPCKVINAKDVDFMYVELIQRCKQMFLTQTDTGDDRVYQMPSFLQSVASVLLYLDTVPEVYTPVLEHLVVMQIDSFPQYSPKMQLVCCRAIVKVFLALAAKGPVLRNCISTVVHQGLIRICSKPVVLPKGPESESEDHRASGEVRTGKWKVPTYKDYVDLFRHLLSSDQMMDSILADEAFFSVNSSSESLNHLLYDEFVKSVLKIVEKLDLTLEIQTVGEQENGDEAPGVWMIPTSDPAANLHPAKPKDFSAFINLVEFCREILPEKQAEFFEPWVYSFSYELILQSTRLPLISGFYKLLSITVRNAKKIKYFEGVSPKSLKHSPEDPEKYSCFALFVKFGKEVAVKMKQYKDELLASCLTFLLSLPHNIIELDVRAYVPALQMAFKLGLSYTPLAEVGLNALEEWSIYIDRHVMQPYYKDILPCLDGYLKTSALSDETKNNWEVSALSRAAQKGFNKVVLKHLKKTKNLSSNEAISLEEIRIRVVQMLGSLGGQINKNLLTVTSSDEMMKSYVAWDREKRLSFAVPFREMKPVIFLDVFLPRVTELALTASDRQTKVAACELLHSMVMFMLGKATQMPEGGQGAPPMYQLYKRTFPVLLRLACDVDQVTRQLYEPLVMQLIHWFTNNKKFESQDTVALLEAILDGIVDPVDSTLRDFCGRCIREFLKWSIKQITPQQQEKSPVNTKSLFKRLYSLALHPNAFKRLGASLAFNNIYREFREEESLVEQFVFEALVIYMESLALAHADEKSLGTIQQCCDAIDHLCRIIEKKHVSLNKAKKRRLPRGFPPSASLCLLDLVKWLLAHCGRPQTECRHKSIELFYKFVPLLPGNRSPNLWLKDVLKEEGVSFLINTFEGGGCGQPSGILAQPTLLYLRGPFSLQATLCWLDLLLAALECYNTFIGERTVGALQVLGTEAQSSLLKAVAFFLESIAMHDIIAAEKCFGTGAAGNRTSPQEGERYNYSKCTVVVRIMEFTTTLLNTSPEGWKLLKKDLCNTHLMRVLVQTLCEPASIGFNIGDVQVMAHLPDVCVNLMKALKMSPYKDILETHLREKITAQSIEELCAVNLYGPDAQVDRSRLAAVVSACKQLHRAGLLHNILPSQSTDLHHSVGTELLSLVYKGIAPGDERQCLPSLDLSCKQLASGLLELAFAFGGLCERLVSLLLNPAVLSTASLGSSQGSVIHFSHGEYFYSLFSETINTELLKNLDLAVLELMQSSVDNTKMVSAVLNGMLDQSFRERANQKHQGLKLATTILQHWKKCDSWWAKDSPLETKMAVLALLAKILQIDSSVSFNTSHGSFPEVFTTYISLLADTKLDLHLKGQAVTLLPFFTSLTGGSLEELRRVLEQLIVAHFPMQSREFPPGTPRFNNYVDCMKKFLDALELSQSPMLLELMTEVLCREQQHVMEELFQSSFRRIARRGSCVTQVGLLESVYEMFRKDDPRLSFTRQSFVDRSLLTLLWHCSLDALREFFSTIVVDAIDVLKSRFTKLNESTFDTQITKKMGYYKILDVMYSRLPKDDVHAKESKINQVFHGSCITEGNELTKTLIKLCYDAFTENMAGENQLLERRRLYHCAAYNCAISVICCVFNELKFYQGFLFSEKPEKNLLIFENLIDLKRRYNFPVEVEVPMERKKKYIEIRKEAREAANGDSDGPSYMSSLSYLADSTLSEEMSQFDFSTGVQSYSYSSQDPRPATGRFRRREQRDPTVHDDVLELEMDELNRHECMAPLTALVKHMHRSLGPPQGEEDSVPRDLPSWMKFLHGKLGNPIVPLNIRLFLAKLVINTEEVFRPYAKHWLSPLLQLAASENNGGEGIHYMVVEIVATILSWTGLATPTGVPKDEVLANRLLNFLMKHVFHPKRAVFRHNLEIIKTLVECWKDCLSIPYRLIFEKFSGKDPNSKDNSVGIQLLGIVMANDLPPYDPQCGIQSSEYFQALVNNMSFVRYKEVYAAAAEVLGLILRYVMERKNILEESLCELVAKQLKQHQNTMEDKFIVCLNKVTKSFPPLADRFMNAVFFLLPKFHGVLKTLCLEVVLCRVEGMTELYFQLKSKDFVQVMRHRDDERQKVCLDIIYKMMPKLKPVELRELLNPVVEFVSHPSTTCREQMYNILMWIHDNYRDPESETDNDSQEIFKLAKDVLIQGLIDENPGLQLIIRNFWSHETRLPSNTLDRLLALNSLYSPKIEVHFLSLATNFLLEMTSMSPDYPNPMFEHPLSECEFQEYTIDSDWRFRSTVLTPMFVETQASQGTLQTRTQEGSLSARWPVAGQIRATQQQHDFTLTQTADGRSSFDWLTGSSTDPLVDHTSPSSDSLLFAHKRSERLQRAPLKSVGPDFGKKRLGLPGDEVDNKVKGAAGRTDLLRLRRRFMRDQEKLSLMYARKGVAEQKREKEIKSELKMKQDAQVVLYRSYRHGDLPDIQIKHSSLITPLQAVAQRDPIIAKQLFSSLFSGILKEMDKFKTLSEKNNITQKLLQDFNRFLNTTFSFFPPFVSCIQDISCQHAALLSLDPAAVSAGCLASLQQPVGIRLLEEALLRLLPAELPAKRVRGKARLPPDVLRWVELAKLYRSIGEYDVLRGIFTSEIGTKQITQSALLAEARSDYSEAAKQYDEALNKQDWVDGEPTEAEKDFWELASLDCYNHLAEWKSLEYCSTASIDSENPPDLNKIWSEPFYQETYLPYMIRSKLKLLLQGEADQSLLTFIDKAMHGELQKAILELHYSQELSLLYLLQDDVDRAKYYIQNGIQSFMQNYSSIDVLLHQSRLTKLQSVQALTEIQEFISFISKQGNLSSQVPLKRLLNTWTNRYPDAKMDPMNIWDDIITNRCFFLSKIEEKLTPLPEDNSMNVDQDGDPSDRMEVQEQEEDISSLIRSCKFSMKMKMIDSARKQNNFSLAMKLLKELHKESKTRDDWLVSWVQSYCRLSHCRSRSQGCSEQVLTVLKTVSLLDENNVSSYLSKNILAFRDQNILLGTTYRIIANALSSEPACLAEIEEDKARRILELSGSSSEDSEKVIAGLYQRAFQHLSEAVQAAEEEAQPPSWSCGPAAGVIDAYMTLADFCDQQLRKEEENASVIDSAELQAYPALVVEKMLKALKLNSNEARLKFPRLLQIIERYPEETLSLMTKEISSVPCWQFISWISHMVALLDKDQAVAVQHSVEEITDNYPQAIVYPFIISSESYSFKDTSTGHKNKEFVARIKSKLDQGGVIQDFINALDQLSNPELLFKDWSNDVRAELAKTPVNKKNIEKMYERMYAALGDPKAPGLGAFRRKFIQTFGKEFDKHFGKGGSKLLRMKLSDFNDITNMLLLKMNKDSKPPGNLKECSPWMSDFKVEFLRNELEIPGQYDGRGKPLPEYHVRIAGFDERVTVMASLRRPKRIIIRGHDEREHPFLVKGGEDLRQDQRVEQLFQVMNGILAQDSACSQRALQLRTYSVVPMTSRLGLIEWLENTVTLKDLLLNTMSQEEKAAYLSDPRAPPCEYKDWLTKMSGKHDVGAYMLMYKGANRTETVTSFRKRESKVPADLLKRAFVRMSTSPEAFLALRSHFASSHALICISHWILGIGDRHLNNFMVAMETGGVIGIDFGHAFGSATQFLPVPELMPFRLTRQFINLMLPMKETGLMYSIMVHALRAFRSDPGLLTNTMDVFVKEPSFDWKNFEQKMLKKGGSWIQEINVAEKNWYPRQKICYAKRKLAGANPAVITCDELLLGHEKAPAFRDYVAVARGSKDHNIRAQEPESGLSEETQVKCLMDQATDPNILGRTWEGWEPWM
Description: Inhibition of human DNA-PK incubated for 30 mins in presence of Mg/ATP by HTRF method
The nature of series [5]: in vivo. To be noted: Sprague-Dawley, rat, po, 5 mg/kg.
Series [6] is described as follows: in vivo. The following applies: Sprague-Dawley, rat, iv, 5 mg/kg.
Series [7] can be described thus: in vivo. The following applies: Sprague-Dawley, rat, plasma, po, 5 mg/kg.
Description: Clearance in Sprague-Dawley rat plasma at 5 mg/kg, po measured upto 24 hrs by LC-MS/MS analysis
Series [8] is described as follows: in vivo. The following applies: Sprague-Dawley, rat, plasma, iv, 5 mg/kg.
Description: Clearance in Sprague-Dawley rat plasma at 5 mg/kg, iv measured upto 24 hrs by LC-MS/MS analysis
Series [9] can be described thus: in vivo. To be noted: Sprague-Dawley, rat, po, 5 mg/kg. The source holds these as a separate data set.
Series [10] in a line: in vivo. To be noted: Sprague-Dawley, rat, iv, 5 mg/kg. This is another data set of the same source.
Series [11] can be described thus: in vivo. The following applies: Sprague-Dawley, rat, po, 5 mg/kg. This is another data set of the same source.
The nature of series [12]: in vivo. To be noted: Sprague-Dawley, rat, iv, 5 mg/kg. This is another data set of the same source.
The nature of series [13]: in vivo. The following applies: Sprague-Dawley, rat, po, 5 mg/kg. The source holds these as a separate data set.
Series [14] can be described thus: in vitro. The following applies: human, liver microsomes.
Series [15] deals with hERG (KCNH2) (Homo sapiens, UniProt Q12809). Description: in vitro.
Description: Inhibition of human ERG at 20 uM relative to control

Calls of active or inactive are those of the source.

The inhibition is the change of the read-out against control, counted positive when it falls. For orientation: IC50 means the midpoint of a concentration-inhibition curve. In general, half-life refers to the time needed for the level to fall by half in the phase considered. A lower half-life goes with rapid decline. One may read the CL/F as the apparent clearance, not corrected for the fraction that reaches the circulation. For orientation: clearance means the rate of elimination divided by the concentration. High values mean a high capacity for elimination, low ones a low capacity for elimination. The term AUC(0-t) denotes the area under the concentration-time curve up to a stated or last time point. Low values mean less exposure, high ones more exposure. What is called Cmax is the maximum level reached in the sampled fluid or tissue. As a reminder, the bioavailability is dose-corrected exposure relative to a reference, in per cent. A higher bioavailability goes with good availability.

Regarding `Cc1cc(-c2cccs2)ncc1Nc1ncc2c(n1)n(C1CCOCC1)c(=O)n2C`, in series [1], the inhibition at […] turned out to be 97.9%. Besides, the IC50 came out at 15.2 nM in series [2] and 0.1 nM in series [4]. In series [3], the result was Active. In addition, the half-life at 24 h is 7.34 h in series [5] and 3.45 h in series [6]. Also, in series [7], the CL/F at 24 h is 204 mL/min/kg. In [8], the clearance at 24 h was 306 mL/min/kg. The figures for the AUC(0-t) at 24 h in series [9] and in series [10] were 277 ng·h/mL and 278 ng·h/mL, respectively. The Cmax at 24 h came to 23.8 ng/mL in series [11] and 23.3 ng/mL in [12]. Further, in series [13], the bioavailability at 24 h was 99.6%. This compound showed a half-life at 5 min, 1 µM in series [14] of 1.96 h.
Consider `Cc1cc(-c2nc[nH]n2)ccc1Nc1ncc2c(n1)n(C1CCOCC1)c(=O)n2C`, for which, in series [1], the inhibition at […] was determined as 96.9%. The IC50 turned out to be 83.3 nM in [2] and 0.4 nM in [4]. The results for the half-life at 24 h in series [5] and in [6] were 3.72 h and 11.8 h, respectively. The same compound showed a CL/F at 24 h in series [7] of 62 mL/min/kg. Further, the clearance at 24 h in [8] was 20.2 mL/min/kg. Besides, the AUC(0-t) at 24 h in series [9] stood at 1350 ng·h/mL; in series [10], 4060 ng·h/mL. Further, the Cmax at 24 h in [11] turned out to be 733 ng/mL; in [12] it was 4290 ng/mL. Also, the bioavailability at 24 h in series [13] is 33.2%. This compound showed a half-life at 5 min, 1 µM in [14] of 10.5 h. Besides, the inhibition at 20 µM in [15] was -0.02%.
With `Cc1cc(-c2cnn(C(F)F)c2)ncc1Nc1ncc2c(n1)n(C1CCOCC1)c(=O)n2C`, the inhibition at […] in series [1] is 96.9%. Further, the IC50 in [2] was found to be 68 nM; in series [4], 0.4 nM. Further, the outcome in series [3] was Active. In addition, the half-life at 24 h is 5.82 h in series [5] and 1.76 h in series [6]. This compound also showed a CL/F at 24 h in series [7] of 17.7 mL/min/kg. This compound also showed a clearance at 24 h in series [8] of 16.3 mL/min/kg. The AUC(0-t) at 24 h in [9] is 4440 ng·h/mL; in series [10] it was 5290 ng·h/mL. The Cmax at 24 h in series [11] was found to be 760 ng/mL; in [12], 1890 ng/mL. Further, in [13], the bioavailability at 24 h was 84%. The same compound returned a half-life at 5 min, 1 µM in series [14] of 2.78 h. The inhibition at 20 µM in series [15] was found to be 22.7%.
With `COc1ccc(-c2cc(C)c(Nc3ncc4c(n3)n(C3CCOCC3)c(=O)n4C)cn2)cc1OC`, the inhibition at […] in [1] is 99.9%. In addition, the figures for the IC50 in series [2] and in [4] were 48 nM and 1 nM, respectively. In addition, in series [3], the result was Active. In addition, the half-life at 24 h in series [5] is 6.73 h; in [6] it was 4.73 h. The apparent clearance (CL/F) at 24 h in [7] was 22.3 mL/min/kg. The compound further had a clearance at 24 h in series [8] of 11 mL/min/kg. Moreover, the figures for the AUC(0-t) at 24 h in series [9] and in series [10] were 3450 ng·h/mL and 7400 ng·h/mL, respectively. The figures for the Cmax at 24 h in [11] and in series [12] were 341 ng/mL and 869 ng/mL, respectively. The bioavailability at 24 h in series [13] is 46.6%. In series [14], this compound yielded a half-life at 5 min, 1 µM of 2.31 h. For the same compound, the inhibition at 20 µM in [15] came to 8.61%.
Consider `COc1ccc(-c2cc(C)c(Nc3ncc4c(n3)n(C3CCOCC3)c(=O)n4C)cn2)cn1`, for which the inhibition at […] in series [1] is 96.7%. The IC50 in [2] came to 79.3 nM; in series [4], 3 nM. Besides, the results for the half-life at 24 h in [5] and in series [6] were 4.37 h and 3.34 h, respectively. Further, the CL/F at 24 h in [7] is 10.7 mL/min/kg. The clearance at 24 h in series [8] is 6.33 mL/min/kg. In addition, the AUC(0-t) at 24 h in series [9] worked out at 7860 ng·h/mL; in series [10], 13200 ng·h/mL. Further, the maximum concentration (Cmax) at 24 h in series [11] and in [12] was 1960 ng/mL throughout. The same compound registered a bioavailability at 24 h in series [13] of 59.6%. This compound also gave a half-life at 5 min, 1 µM in series [14] of 19.2 h. For the same compound, the inhibition at 20 µM in series [15] came to 16.8%.
For `Cc1cnc(-c2cnn(C)c2)cc1Nc1ncc2c(n1)n(C1CCOCC1)c(=O)n2C`, in [1], the inhibition at […] worked out at 99.4%. Also, the IC50 in [2] worked out at 27.5 nM. Further, in [3], the outcome was Active. In addition, the half-life at 24 h is 11.6 h in series [5] and 7.08 h in series [6]. In addition, the CL/F at 24 h in [7] is 16 mL/min/kg. In series [8], this compound gave a clearance at 24 h of 11.7 mL/min/kg. Also, the values for the AUC(0-t) at 24 h in [9] and in series [10] were 6470 ng·h/mL and 7300 ng·h/mL, respectively. Besides, the results for the Cmax at 24 h in series [11] and in [12] were 406 ng/mL and 1320 ng/mL, respectively. Besides, the bioavailability at 24 h in series [13] is 88.5%. Moreover, the half-life at 5 min, 1 µM in [14] is 4.81 h.

Source of the values: ChEMBL document CHEMBL5532664, “Discovery, Optimization, and Evaluation of Potent and Selective DNA-PK Inhibitors in Combination with Chemotherapy or Radiotherapy for the Treatment of Malignancies” (J Med Chem, 2024).
